Where two headings read alike, the source gives them in different places.
Assays:
[1] = system: carrageenan-λ induced pleurisy; assay: carrageenan-λ induced lung (pleural cavity) inflammation; format: in vivo, CD1 male mice; conditions: for number of neutrophils relative to negative control group (set at 100%): exudate 4 h after
Excerpt: Treatment of lung inflammation. Three compounds, 3β,16α-dihydroxy-17-oxoandrostane, 3α,16β,17β-trihydroxyandrostane and 3α,16α,17α-trihydroxyandrostane were used to treat inflammation in mice essentially as described (D. Auci et al., Ann. New York Acad. Sci. 1051:730-742 2005). Five to 8 week old CD1 male mice (Charles River, Calco, Italy) were used for the study. The animals were housed in a controlled environment and provided with standard rodent chow and water. Animal care was in compliance with applicable regulations on protection of animals. Mice were allocated into one of the following groups: (1) mice treated with 2% carrageenan-k in saline (carrageenan-λ treated control group), (2) mice treated with 0.1 mg, 0.01 mg or 0.001 mg 3β,16α-dihydroxy-17-oxoandrostane by subcutaneous (s.c.) injection 24 h and 1 h before carrageenan-λ administration, (3) mice treated with 0.1 mg, 0.01 mg or 0.001 mg of 3α,16α,17α-trihydroxyandrostane by s.c. injection 24 and 1 h before carrageenan; (4) mice treated with 0.1 mg, 0.01 mg or 0.001 mg […],16β,17β-trihydroxyandrostane by s.c. injection 24 h and 1 h before carrageenan-λ administration; (5) mice treated with vehicle (0.1% carboxymethylcellulose, 0.9% saline, 2% tween 80, 0.05% phenol) s.c. 24 h and 1 h before carrageenan-λ administration; (6) mice treated with rabbit anti-mouse polyclonal anti-TNF-α antibody (200 μg) given as an intraperitoneal bolus 24 h and 1 h before carrageenan-λ administration (positive control group); and (7) sham-operated mice that were not treated with carrageenan-λ. Each group consisted of 10 mice. All treatments were given in a final volume of 100 μL. Lung (pleural cavity) inflammation was induced as follows. The mice were anaesthetised with isoflurane and a skin incision was made at the level of the left sixth intercostal space. The underlying muscle was dissected and either 0.1 mL saline (control) or 0.1 mL saline containing 2% λ-carrageenan was injected into the pleural cavity. The carrageenan-λ is a potent inducer of inflammation, which is manifested in this protocol by accumulation of fluid and neutrophils in the pleural cavity. The incision was closed with a suture and the animals were allowed to recover.
At 4 h after the injection of carrageenan-λ, the animals were euthanized by exposure to CO2. The chest was carefully opened and the pleural cavity rinsed with 1 mL of saline solution containing heparin (5 U/mL) and indomethacin (10 μg/mL). The exudate and washing solution were removed by aspiration and the total volume measured. Any exudate contaminated with blood was discarded. The amount of exudate was calculated by subtracting the injected 1 mL volume from the total pleural cavity volume that was recovered. The neutrophils in the exudate were suspended in phosphate-buffer saline and counted with an optical microscope in a Burker's chamber after Trypan Blue staining. The results were analysed by one-way ANOVA followed by a Bonferroni post-hoc test for multiple comparisons. A p-value less than 0.05 was considered significant. For statistical analysis each group was compared to the control group of mice that were challenged with carrageenan-k and received no other treatment.
The table below describes the number of neutrophils from the treated animal groups relative to untreated control animals that were exposed to carrageenan-λ, but not treated with anything else (negative control group). The neutrophil number for the negative control group was set at 100% and other groups were compared to this.

[2] = system: lethal amount of bacterial lipopolysaccharide (LPS); assay: lethal shock protocol; format: in vivo, mice; conditions: second assay; oral gavage 24 h before and 1 h after LPS
Method: Treatment of lethal inflammation/shock. Two compounds, 16α-bromoepiandrosterone (3β-hydroxy-16α-bromoandrostane-17-one) and 3β,16α-dihydroxy-17-oxoandrostane, were used in a lethal shock protocol. In one protocol, 3 mg of 16α-bromoepiandrosterone was administered to one group of animals by oral gavage, while another group received 3 mg of 16α-bromoepiandrosterone by subcutaneous injection. A group of control animals received a placebo control. In this protocol, the 16α-bromoepiandrosterone was administered to mice at 24 hours before and at 1 hour after administration of a lethal amount of bacterial lipopolysaccharide (LPS). By the end of the observation period, 72 hours after LPS administration, none of the vehicle treated placebo control animals had survived, while 65% of animals that received 16α-bromoepiandrosterone by oral administration survived. 50% of the animals that received 16α-bromoepiandrosterone by subcutaneous injection survived. Animals that survived for 72 hours all recovered from the LPS exposure.
In a second assay, 16α-bromoepiandrosterone or 3β,16α-dihydroxy-17-oxoandrostane was administered to mice by oral gavage at 24 hours before and 1 hour after administration of a lethal amount of LPS. A vehicle treated group of animals was used as the placebo control.

[3] = system: human whole blood; assay: γ-interferon production in human whole blood exposed to LPS; format: cell-based; conditions: 24 hours with LPS; 16α-bromoepiandrosterone at 100 ng/mL
Method: Anti-inflammation activity in human cells in vitro. […] The amount of γ-interferon was measured in the growth medium when the cells had been incubated in the presence of LPS for 24 hours.

[4] = system: human T lymphocytes (PBMC); assay: human mixed lymphocyte reaction (MLR); format: cell-based; conditions: 300 nM or 30 nM
Excerpt: Human mixed lymphocyte reaction (MLR). The capacity of 3β,16α-dihydroxy-17-oxoandrostane, 3β,17β-dihydroxy-16-oxoandrostane, 17α-ethynylandrost-5-ene-3β,7β,17β-triol, and 17β-aminoandrost-5-ene-3β-ol to affect antigen specific stimulation in which human T lymphocytes respond to a specific foreign antigen (major histocompatibility complex).
Blood samples were obtained from 3 (2 males, […]) fasting, healthy human volunteers of 23-31 years old. […] The subjects were bled between 9 and 10 AM to limit possible fluctuations in the circulating levels of hormones or cytokines that could have influenced the in vitro responses of their lymphocytes. Peripheral blood mononuclear cells (PBMC) were isolated by centrifugation on Ficoll-Hypaque (density 1.077, Biochrom AG, Berlin, Germany) gradients and resuspended in culture medium (RPMI 1640 supplemented with 2 mM L-glutamine, penicillin (100 U/mL) and streptomycin ([…]) (Invitrogen s.rl., Milan, Italy). Autologous (responder) inactivated plasma was used at 10%. Five hundred thousand responder PBMC (PBMCr) and 500,000 allogeneic irradiated (30 Gy) stimulator PBMC (PBMCs) were mixed at a ratio of 1:1 in 200 μL medium and cultured for 6 days in flat bottom 96 well plates (Nunc, Roskilde, Denmark) at a concentration of 300 nM or 30 nM for each of the 4 compounds. The compounds were dissolved in ethanol and then diluted to the desired concentration with culture medium leading to a final solution containing 0.01% of ethanol. This vehicle was used as control. Controls also included PBMCr and PBMCs cultured separately. During the last 8 hours of the culture period the PBMC were pulsed with […] [^3H] thymidine (Amersham, Milan, Italy). The cells were then harvested and radioactivity incorporation measured with a beta cell counter. The mean cpm of quadruplicate wells was calculated. Proliferation of T cells was expressed as a stimulation index: SI=cpm (PMBCs xPBMCr)/cpm (PBMCr)+cpm (PBMCs). Statistical analysis was performed using the Student's t test. The cpm obtained from quadruplicate of each test compound were compared to proliferative responses obtained in control PBMCr and PBMCs cultured in the presence of the vehicle. Differences were considered significant at p<0.05.

[5] = metabolic stability in liver microsomes, species not stated; conditions: compared with androst-5-ene-3β,17β-diol
Method: The protocol was performed as follows. […] (2) Set up samples as follows. […] (4) The internal standard/acetonitrile solution.

[6] = system: bone loss after thermal injury; assay: bone loss in thermally-injured mice; format: in vivo; conditions: 20% total body surface area thermal injury
Excerpt: In bone loss conditions, 5-androstene-3β,7β,17β-triol affected the principal bone structures, i.e., cortical and trabecular layers and the growth plate. […] We observed partial protection against loss of bone mineral content as measured by dual X-ray absorptiometry.

[7] = system: NF-κB; assay: inhibition of NF-κB activation in NF-κB-bla THP-1 cells after LPS stimulation; format: cell-based, human; conditions: Homo sapiens, THP-1; LPS stimulation; 50% of the compound's maximum inhibition; averages; read-out: IC50
Method in brief: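 THP-1 monocytes stably carrying an NF-κB response element–driven β-lactamase reporter, plated about 24 h before activation with LPS at 0.2 ng/mL. Reporter activity measured by FRET ratiometric detection; values are averages of usually 2-4 runs per compound.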

[8] = system: popliteal lymph node cells; assay: reporter antigen popliteal lymph node (PLN) assay; format: in vivo, BALB/C mice; conditions: compound 1.0 and 0.1 mg/day; dexamethasone 5 μg/day
Excerpt: Analysis of immune suppression. Glucocorticoid steroids such as dexamethasone or hydrocortisone are typically immune suppressive and have significant toxicities associated with their use. Immune suppression was examined in a reporter antigen popliteal lymph node assay in mice essentially as previously described (C. Goebel et al., Inflamm. Res., 45(Suppl. 2):S85-S90, 1996; R. Pieters et al., Environmental Health Perspectives 107(Suppl. 5):673-677, 1999). […] In this protocol, the vehicle was 0.1% carboxymethylcellulose, 0.9% saline, 2% tween 80 and 0.05% phenol, which contained 17α-ethynylandrost-5-ene-3β,7β,17β-triol in suspension in drug treated animals. Assessment of activity included (1) measuring suppression of numbers of total lymphocytes, antigen specific IgM, IgG1 and IgG2a antibody secreting cells (ASC) (ELISPOT assay) in popliteal lymph node cells; (2) analysis of cell surface marker (CD4, CD8, CD19, F480, CD80, CD86) expression by flow cytometry of living cells in suspension; and (3) IL-4, TNFα and IFNγ production by lymphocytes in vitro (ELISA).
Groups (n=5 per group) of specific pathogen free BALB/C mice were used. The Positive control group was treated with vehicle (oral gavage) and 5 μg/day dexamethasone by subcutaneous injection to induce immune suppression. Vehicle control animals (negative control) were treated with vehicle alone (oral gavage). One group of animals was treated with 17α-ethynylandrost-5-ene-3β,7β,17β-triol at 0.1 mg/day by oral gavage. Another group was treated with 1 mg/day of 17α-ethynylandrost-5-ene-3β,7β,17β-triol was administered to the animals oral gavage. The results were analyzed by two-tailed Student's t-test with equal variance. The animals were injected in the right hind footpad with 50 μL of freshly prepared sensitizing dose of TNP-OVA. […] Single cell suspensions were prepared, resuspended in 1 mL PBS-BSA (1%) and counted. Cell numbers, IL-4, IL-5 and IFNγ were measured.

[9] = system: MG-63 cells; assay: pilot studies of dexamethasone in MG-63 cells; format: cell-based; conditions: Homo sapiens
Excerpt: The capacity of compounds including 5-androstene-3β,7β,17β-triol, 17α-ethynyl-5-androstene-3β,7β,17β-triol and 4-estrene-3α,17β-diol to reverse adverse effects of glucocorticoids in bone growth was shown in the human MG-63 osteosarcoma cell line. MG-63 cells are osteoblasts, which are cells that mediate bone growth. Theis cell line has been used extensively to study bone biology and to characterize the biological activity of compounds for treatment of bone loss conditions (e.g., B. D. Boyan et al., J. Biol. Chem., 264(20):11879-11886, 1989; L. C. Hofbauer et al., Endocrinology, 140(10):4382-4389, 1999). Adverse toxicities associated with elevated glucocorticoid levels include a decrease in the production of IL-6 and IL-8 by osteoblasts, including the MG-63 cell line, and an increase in the expression of the 11β-hydroxysteroid dehydrogenase type 1 enzyme (11β-HSD). Increased 11β-hydroxysteroid dehydrogenase type 1 enzyme results in increased levels of endogenous glucocorticoid activity by converting endogenous cortisone to the active cortisol, which inhibits bone growth. The 11β-HSD enzyme is expressed in liver, adipose tissue, brain and bone tissues. Cortisol generated by 11β-HSD-1 contributes to osteoporosis, insulin resistance, type 2 diabetes, dyslipidemia, obesity, central nervous system disorders such as stroke, neuron death, depression and Parkinson Disease. […]

## C[C@]12CC[C@H](O)CC1CC[C@@H]1[C@@H]2CC[C@]2(C)C(=O)[C@H](O)C[C@@H]12 (stereo partly drawn) [3β,16α-dihydroxy-17-oxoandrostane]
[1]; 0.001 mg s.c. 24 h and 1 h before carrageenan-λ
  number of neutrophils relative to negative control group (set at 100%): 97%
[1]; 0.01 mg s.c. 24 h and 1 h before carrageenan-λ
  number of neutrophils relative to negative control group (set at 100%): 73%
[1]; 0.1 mg dose s.c.
  volume of pleural exudate: significantly reduced
[1]; 0.1 mg s.c. 24 h and 1 h before carrageenan-λ
  number of neutrophils relative to negative control group (set at 100%): 73%
[1]; s.c.
  potency compared with polyclonal anti-TNF-α antibody control: less potent
[2]
  survival 72 hours after LPS: 50%
[3]
  production of γ-interferon: Reduced production
[4]
  immune suppression (inhibition of the MLR): not appreciably immune suppressive
[5]
  rate of metabolism by microsomes: metabolized by microsomes at a rate similar to the androst-5-ene-3β,17β-diol reference compound

## C[C@]12CC[C@H]3[C@@H]([C@@H](O)C=C4C[C@@H](O)CC[C@@]43C)[C@@H]1CC[C@@H]2O [androst-5-ene-3β,7β,17β-triol]
[6]
  femur ash weight vs vehicle-treated burned mice: significantly (p<0.01) greater
  loss of cortical and trabecular bone mass and suppression of chondrocyte proliferation: significantly (p<0.01) prevented

## C[C@@H]1C[C@H]2[C@@H]3CCC4=CC(=O)C=C[C@]4(C)[C@@]3(F)[C@@H](O)C[C@]2(C)[C@@]1(O)C(=O)CO [dexamethasone, reference compound]
[7]
  IC50: 0.47 nM
[8]
  IFNγ, IL-4 and IL-5 levels compared to vehicle control: reduced
[9]; read-out: IC50 for inhibition of IL-6 from MG-63 cells
  IC50: 10 nM
[9]; read-out: IC50 for inhibition of growth of MG-63 cells
  IC50: 15.3 nM
